“Also recorded” adds a separate entry of the source.
What was measured:
[1] = tested on: human β-cells (dispersed human pancreatic islets); format: cell-based; conditions: for human β-cell proliferation in words, dose response / overall: doses of 3–30 μM
[2] = tested on: NFAT2-GFP nuclear translocation in R7T1 rat beta cell line; test: NFAT2 translocation assay; format: cell-based; conditions: 10 μM, 24 h

| Compound | human β-cell proliferation in words, dose response / overall [1] | NFAT2 translocation to nucleus [2] | human β-cell proliferation, Ki-67 immunolabeling ([1]; 10 μM, 96 h) | beta cell toxicity (human β-cells) |
| --- | --- | --- | --- | --- |
| COc1ccc2c(c1)[nH]c1c(Cl)nccc12 [1–5, 1-Chloro-7-methoxy-9H-β-carboline] | comparable to that of harmine |  |  |  |
| COc1ccc2c(c1)[nH]c1c(C)nc(CO)cc12 [2–8, (1-Methyl-7-methoxy-9H-pyrido[3,4-b]indol-3-yl)methanol] | excellent human β-cell proliferation; also recorded: caused proliferation in a dose-dependent manner; also recorded: superior human β-cell proliferation at a lower dose as compared to 2–2; also recorded: comparable to that of harmine | drove NFAT2 translocation | comparable to that of harmine | did not cause toxicity |
| COc1ccc2c(c1)[nH]c1c(CO)nccc12 [Compound 2–2, 1-Hydroxymethyl-7-methoxy-9H-β-carboline] |  | drove NFAT2 translocation |  | did not cause toxicity |
| COc1ccc2c(c1)[nH]c1c(C(C)=O)nccc12 [Compound 3–2, 1-Acetyl-7-methoxy-9H-β-carboline] | comparable to that of harmine |  |  |  |

From PMC6350255 (Journal of medicinal chemistry, 2018)
